Read-outs that look alike come from different tables or passages of the source.
Experiments:
[1] = molecular target: T1, large-conductance calcium-activated potassium (maxi-K) channels from bovine aortic smooth muscle (Bos taurus, UniProt Q28204); test: Patch clamp recordings of maxi-K channel currents in excised inside-out membrane patches; assay type: biochemical; details: for block of channel activity / effect on channel open probability: 1 μM
T1 construct: membrane patches excised from cultured bovine aortic smooth muscle cells; endogenous in cells; host or cells: cultured bovine aortic smooth muscle cells
T1 sequence (Q28204 whole entry): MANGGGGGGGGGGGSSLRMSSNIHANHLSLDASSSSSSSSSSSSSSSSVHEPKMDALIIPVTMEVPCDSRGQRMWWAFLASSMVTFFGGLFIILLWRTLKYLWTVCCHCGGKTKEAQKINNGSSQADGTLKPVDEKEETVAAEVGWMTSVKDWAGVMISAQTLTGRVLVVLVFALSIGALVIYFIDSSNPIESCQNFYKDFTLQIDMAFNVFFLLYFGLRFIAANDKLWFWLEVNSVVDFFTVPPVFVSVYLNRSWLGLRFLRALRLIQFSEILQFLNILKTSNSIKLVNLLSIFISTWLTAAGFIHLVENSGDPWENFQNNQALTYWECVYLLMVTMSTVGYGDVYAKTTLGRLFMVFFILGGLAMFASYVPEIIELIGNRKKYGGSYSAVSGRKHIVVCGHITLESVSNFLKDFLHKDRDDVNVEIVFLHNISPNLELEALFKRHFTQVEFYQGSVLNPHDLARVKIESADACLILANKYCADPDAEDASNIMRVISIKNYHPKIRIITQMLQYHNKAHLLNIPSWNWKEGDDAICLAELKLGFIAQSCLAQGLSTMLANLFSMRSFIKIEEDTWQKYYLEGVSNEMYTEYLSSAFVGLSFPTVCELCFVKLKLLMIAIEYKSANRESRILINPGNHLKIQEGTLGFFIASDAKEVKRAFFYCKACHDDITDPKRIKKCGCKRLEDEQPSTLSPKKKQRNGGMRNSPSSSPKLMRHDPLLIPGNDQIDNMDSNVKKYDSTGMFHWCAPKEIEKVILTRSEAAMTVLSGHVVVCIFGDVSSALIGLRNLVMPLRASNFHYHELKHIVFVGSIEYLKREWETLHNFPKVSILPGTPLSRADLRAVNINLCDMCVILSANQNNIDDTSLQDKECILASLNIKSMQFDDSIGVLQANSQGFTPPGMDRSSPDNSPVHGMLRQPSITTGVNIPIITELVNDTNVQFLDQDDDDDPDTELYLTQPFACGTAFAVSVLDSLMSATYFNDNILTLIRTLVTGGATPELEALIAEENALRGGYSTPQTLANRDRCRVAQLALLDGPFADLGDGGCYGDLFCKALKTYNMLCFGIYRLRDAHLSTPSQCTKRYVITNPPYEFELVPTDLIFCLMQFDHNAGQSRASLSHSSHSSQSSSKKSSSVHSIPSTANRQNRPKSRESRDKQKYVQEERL
T1 sequence (Q28067 whole entry partner): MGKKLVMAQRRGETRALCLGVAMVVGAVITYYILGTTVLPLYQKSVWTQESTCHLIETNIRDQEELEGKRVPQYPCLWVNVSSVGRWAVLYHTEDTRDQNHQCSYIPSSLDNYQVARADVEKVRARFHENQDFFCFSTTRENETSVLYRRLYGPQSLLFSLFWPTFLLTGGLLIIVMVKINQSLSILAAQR
Experimental: Pipettes were typically filled with solutions containing (mM): 150 KCl, 10 Hepes (4-(2-hydroxyethyl)-1-piperazine […]), 1 Mg, 0.01 Ca, and adjusted to pH 7.20 with 3.7 mM KOH. After forming a high resistance (>10^9 ohms) seal between the sarcolemmal membrane and the pipette, the pipette was withdrawn from the cell, forming an excised inside-out membrane patch. […] An AXOPATCH 1C amplifier (Axon Instruments, Foster City, Calif.) with a CV-4 headstage was used to control the voltage and to measure the currents flowing across the membrane patch. The input to the headstage was connected to the pipette solution with a Ag/AgCl wire, and the amplifier ground was connected to the bath solution with a Ag/AgCl wire covered with a tube filled with agar dissolved in 0.2 M KCl. Maxi-K channels were identified by their large single channel conductance (˜250 pS) and sensitivity of channel open probability to membrane potential and intracellular calcium concentration.
Data were stored on a RACAL STORE 4DS FM tape recorder (Racal Recorders, Vienna, Va.) or on digital video tape using a video casette recorder after digitizing the signal with VR-10 (Instrutech Corp., Belmont, N.Y.) PCM video encoder. The signal was also recorded on chart paper with a GOULD 2400S chart recorder (Gould Inc., Cleveland, Ohio). For quantitative analysis, the data was played into a DEC 11-73 (Digital Equipment Corp., Maynard, Mass.) after digitization with a DT2782-8D1A analogue to digital converter (Data Translation Inc., Marlboro, Mass.), or played into a Mac IIx or Quadra 700 computer (Apple Computers) after digitization with an ITC-16 interface (Instrutech Corp., Belmont, N.Y.).

[2] = molecular target: T2, [125I]ChTX receptor in bovine aortic sarcolemma membrane vesicles (Bos taurus, UniProt Q28204); test: [125I]ChTX binding assay with sarcolemma membrane vesicles; details: for inhibition at 10 µM: read-out: inhibition of [125I]ChTX binding
T2 construct: bovine aortic sarcolemma membrane vesicles; from tissue; host or cells: bovine aortic sarcolemma membrane vesicles
T2 sequence (Q28204 whole entry): as the sequence (Q28204 whole entry) above
T2 sequence (Q28067 whole entry partner): as the sequence (Q28067 whole entry partner) above
Experimental: The interaction of [^125I]ChTX with bovine aortic sarcolemma membrane vesicles was determined under conditions as described (Vazquez et al., 1989, J. Biol. Chem. 264, 20902-20909). Briefly, sarcolemma membrane vesicles were incubated in 12×75 polystyrene tubes with ca. 25 pM [^125I]ChTX (2200 Ci/mmol), in the absence or presence of test compound, in a media consisting of 20 mM NaCl, 20 mM Tris-HCl pH 7.4, 0.1% bovine serum albumin, 0.1% digitonin. Nonspecific binding was determined in the presence of 10 nM ChTX. Incubations were carried out at room temperature until ligand binding equilibrium is achieved at ca. 90 min. At the end of the incubation period, samples were diluted with 4 mL ice-cold 100 mM NaCl, 20 mM Hepes-Tris pH 7.4 and filtered through GF/C glass fiber filters that have been presoaked in 0.5% polyethylenimine. Filters were rinsed twice with 4 mL ice-cold quench solution. Radioactivity associated with filters was determined in a gamma counter. Specific binding data in the presence of each compound (difference between total binding and nonspecific binding) was assessed relative to an untreated control.

[3] = concentrations from 1 nM to 100 μM

CC(C)=CCOC(C)(C)[C@H]1O[C@H]2CC[C@]3(C)[C@@]4(C)c5[nH]c6ccc(CC=C(C)C)cc6c5C[C@@H]4CC[C@@]3(O)C23OC3[C@@H]1O (stereo partly drawn) [Compound B]
IC50 [1]: < 1 nM
Ki [1]: < 1 nM
block of maxi-K channels ([1]; 1 nM): nearly complete block

COC(=O)C12C(O)C[C@@H](C(C)(C)O)OC1CC[C@@]1(C)[C@H]2CC[C@H]2Cc3c([nH]c4ccccc34)[C@@]21C (stereo partly drawn) [Compound E, methyl hydroxypaspalinate]
effect on [125I]ChTX binding [2, 3]: did not affect
IC50 [1]: > 10000 nM
strength as blocker of maxi-K channels compared with Compound C [1]: weaker
block of channel activity / effect on channel open probability [1]: no significant effect
block of channel activity ([1]; 10 μM, slowly increasing over 5-10 minutes): incomplete block

CC(C)=CCOC(C)(C)[C@@H]1CC2OC23[C@H](CC[C@@]2(C)[C@H]3CC[C@H]3Cc4c([nH]c5ccccc45)[C@@]32C)O1 (stereo partly drawn) [Compound A]
inhibition at 10 µM [2]: 2%
IC50 [1]: ~100 nM
strength as blocker of maxi-K channels compared with Compound C [1]: weaker
block of maxi-K channels ([1]; 10 nM): blocked a small fraction of channel activity
block of channel activity ([1]; 100 nM): approximately one half
block of channel activity / effect on channel open probability [1]: nearly all

CC(C)=CCc1cccc2[nH]c3c(c12)C[C@@H]1CC[C@@]2(O)C45OC4[C@@H]4OC(C=C(C)C)OC(C)(C)[C@H]4OC5=CC[C@]2(C)[C@@]31C (stereo partly drawn) [Compound C]
inhibition at 10 µM [2]: 29%
IC50 [1]: < 10 nM
block of maxi-K channels ([1]; 10 nM): rapid and complete block
reversal of block during washout ([1]; 10 nM, brief (~10 min) washout): not reversed

CC(C)=CC1O[C@H]2C3OC34C(=CC[C@]3(C)[C@@]5(C)c6[nH]c7cccc(CC8OC8(C)C)c7c6C[C@@H]5CC[C@@]43O)O[C@@H]2C(C)(C)O1 (stereo partly drawn) [Compound G]
inhibition at 10 µM [2]: 35%
IC50 [1]: < 0.1 nM
channels blocked ([1]; 0.1 nM): 82%
channels blocked ([1]; 1 nM): 98.6%
channel block ([1]; 10 nm): > 99%

CC1(C)ON=C2C=C3[C@H](CC[C@@]4(C)[C@@]3(O)CC[C@H]3Cc5c([nH]c6ccccc56)[C@@]34C)O[C@@H]21 [Compound F, Paxizoline]
effect on [125I]ChTX binding ([2]; concentrations above 5 μM): concentration-dependent inhibition
effect on amount of toxin bound to its receptor ([2]; range of 50 nM to 2 μM): small increase
maximum level of inhibition (saturation) ([2]; tested from 1 nM to 100 μM): ca. 32 % control
decrease in channel activity ([1]; 10 nM): ~50%
IC50 ([1]; excised inside-out patches, compound added to bath, read-out: [50% CHANNEL BLOCK]): ~10 nM

CC(C)(O)[C@@H]1CC(O)C2(C(=O)O)C(CC[C@@]3(C)[C@H]2CC[C@H]2Cc4c([nH]c5ccccc45)[C@@]23C)O1 (stereo partly drawn) [Compound D, hydroxypaspalinic acid]
effect on [125I]ChTX binding [2, 3]: did not have any effect
IC50 [1]: ~1000 nM
strength as blocker of maxi-K channels compared with Compound C [1]: weaker
reduction in channel open probability ([1]; 10 nM): < 50%
block of channel activity / effect on channel open probability [1]: complete block was not observed
